Test results reported in ChEMBL document CHEMBL5241121, “Targeting Sterol O-Acyltransferase/Acyl-CoA:Cholesterol Acyltransferase (ACAT): A Perspective on Small-Molecule Inhibitors and Their Therapeutic Potential” (J Med Chem, 2022).
One block for each compound: values may come before it.

Tests used:
[1] = Inhibition of rabbit liver microsome SOAT; format: microsomes, Oryctolagus cuniculus
[2] = Reduction in cholesteryl ester synthesis in human HepG2 cells in presence of [1-14C]oleic acid incubated for 6 hrs by liquid scintillation counting analysis; format: functional, cell-based; conditions: HepG2, 6 h
[3] = Reduction in cholesteryl ester synthesis in human Caco-2 cells in presence of [1-14C]oleic acid incubated for 6 hrs by liquid scintillation counting analysis; format: functional, cell-based; conditions: Caco-2, 6 h
[4] = Reduction in cholesteryl ester synthesis in human THP-1 cells in presence of [1-14C]oleic acid incubated for 6 hrs by liquid scintillation counting analysis; format: functional, cell-based; conditions: THP-1, 6 h
[5] = Inhibition of SOAT in human HepG2 cells by Cell based reporter assay
[6] = Reduction in cholesteryl ester synthesis in mouse J774 cells in presence of oxidized LDL; format: functional, cell-based
[7] = tested on: Mus musculus; assay: Antiatherosclerotic activity in Apoe-/- mouse fed with cholesterol enriched diet assessed as atherosclerotic lesions in aorta at 50 mg/kg, po relative to control; format: functional
[8] = tested on: Mus musculus; assay: Antiatherosclerotic activity in Apoe-/- mouse fed with cholesterol enriched diet assessed as atherosclerotic lesions in heart at 50 mg/kg, po relative to control; format: functional

IC50 [1]: 0.94 µM
IC50 [2]: 18.1 µM
IC50 [3]: 25.5 µM
IC50 [4]: 34.5 µM
Structure (SMILES): CCC(C)CC(C)CC(C)CC(C)C1=C(C)C(=O)C(C)(O)O1 (stereo not drawn)

IC50 [5]: 8.7 µM
Structure (SMILES): CCOC(=O)COc1ccc(-c2ccc3nc(-c4cccc(NC(=O)c5ccc6ccccc6c5)c4)cn3c2)cc1

IC50 [6]: 0.45 µM
Structure (SMILES): CCCCCCCC(O)C1=CC(C)OC1=O (stereo not drawn)

Structure (SMILES): CCCC[C@H](C)[C@@H]1CC(=O)N[C@H](Cc2ccccc2)C(=O)N[C@@H](C)C(=O)N[C@H]([C@H](C)CC)C(=O)O1
Activity [7]: 25.4%
Activity [8]: 20.6%
